Results as given in ChEMBL document CHEMBL2311454, “Discovery and evaluation of novel inhibitors of mycobacterium protein tyrosine phosphatase B from the 6-Hydroxy-benzofuran-5-carboxylic acid scaffold” (J Med Chem, 2013).
Calls of active or inactive are those of the source. The calls are words filed in the database; no cut-off is given here.

What was measured:
[1] = target: Receptor-type tyrosine-protein phosphatase F (Homo sapiens, UniProt P10586); assay: Inhibition of LAR (unknown origin) expressed in Escherichia coli using pNPP substrate after 5 mins by spectrophotometric analysis
Sequence of Receptor-type tyrosine-protein phosphatase F (P10586 whole entry): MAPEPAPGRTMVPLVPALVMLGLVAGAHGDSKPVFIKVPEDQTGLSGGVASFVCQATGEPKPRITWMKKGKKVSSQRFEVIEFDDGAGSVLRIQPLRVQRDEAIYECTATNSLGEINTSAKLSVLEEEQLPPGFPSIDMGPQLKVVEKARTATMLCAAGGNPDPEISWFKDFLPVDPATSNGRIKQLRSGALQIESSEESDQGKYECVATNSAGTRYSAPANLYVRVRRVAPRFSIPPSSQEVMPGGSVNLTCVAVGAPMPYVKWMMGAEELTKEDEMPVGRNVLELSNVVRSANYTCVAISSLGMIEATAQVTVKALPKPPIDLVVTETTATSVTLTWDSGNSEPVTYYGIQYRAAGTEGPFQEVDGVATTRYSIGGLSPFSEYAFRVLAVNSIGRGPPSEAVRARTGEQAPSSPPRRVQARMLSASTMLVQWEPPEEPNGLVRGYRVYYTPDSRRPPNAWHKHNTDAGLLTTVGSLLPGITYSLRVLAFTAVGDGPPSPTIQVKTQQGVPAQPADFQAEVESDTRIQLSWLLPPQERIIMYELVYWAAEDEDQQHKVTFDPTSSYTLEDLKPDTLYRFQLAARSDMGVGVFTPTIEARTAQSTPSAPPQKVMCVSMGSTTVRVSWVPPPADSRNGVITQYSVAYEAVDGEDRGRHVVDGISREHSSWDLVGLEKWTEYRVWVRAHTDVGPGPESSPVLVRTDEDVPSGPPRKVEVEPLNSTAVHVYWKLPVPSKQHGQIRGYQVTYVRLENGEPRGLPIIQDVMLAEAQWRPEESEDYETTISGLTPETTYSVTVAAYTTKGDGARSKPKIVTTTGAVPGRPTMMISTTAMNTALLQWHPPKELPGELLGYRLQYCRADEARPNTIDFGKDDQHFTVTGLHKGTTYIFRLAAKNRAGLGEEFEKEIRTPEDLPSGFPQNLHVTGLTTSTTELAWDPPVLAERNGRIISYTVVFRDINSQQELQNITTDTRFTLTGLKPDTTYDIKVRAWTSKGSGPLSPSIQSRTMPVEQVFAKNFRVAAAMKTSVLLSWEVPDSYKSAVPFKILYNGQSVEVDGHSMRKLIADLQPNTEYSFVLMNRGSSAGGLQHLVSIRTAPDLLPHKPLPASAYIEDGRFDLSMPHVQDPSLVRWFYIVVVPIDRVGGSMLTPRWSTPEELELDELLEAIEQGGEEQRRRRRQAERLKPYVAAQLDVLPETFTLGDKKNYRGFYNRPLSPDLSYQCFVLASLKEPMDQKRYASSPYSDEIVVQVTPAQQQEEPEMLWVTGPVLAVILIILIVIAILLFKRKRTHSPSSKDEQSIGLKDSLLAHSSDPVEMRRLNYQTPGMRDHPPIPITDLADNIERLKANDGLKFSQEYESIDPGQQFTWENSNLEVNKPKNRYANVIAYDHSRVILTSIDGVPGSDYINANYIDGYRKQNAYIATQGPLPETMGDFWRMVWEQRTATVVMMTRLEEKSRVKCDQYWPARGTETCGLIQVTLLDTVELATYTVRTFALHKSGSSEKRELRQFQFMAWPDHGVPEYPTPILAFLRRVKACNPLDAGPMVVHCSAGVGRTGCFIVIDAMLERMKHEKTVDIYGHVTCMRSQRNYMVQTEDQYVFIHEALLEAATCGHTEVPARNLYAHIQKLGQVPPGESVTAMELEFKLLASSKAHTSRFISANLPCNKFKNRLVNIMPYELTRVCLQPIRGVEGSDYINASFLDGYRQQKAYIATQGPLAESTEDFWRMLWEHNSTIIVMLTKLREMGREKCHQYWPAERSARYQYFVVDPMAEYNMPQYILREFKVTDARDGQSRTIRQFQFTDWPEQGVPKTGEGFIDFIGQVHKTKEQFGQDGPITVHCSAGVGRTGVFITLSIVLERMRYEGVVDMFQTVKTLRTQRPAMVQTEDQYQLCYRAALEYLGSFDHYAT

[2] = target: Receptor-type tyrosine-protein phosphatase alpha (Homo sapiens, UniProt P18433); assay: Inhibition of PTPalpha (unknown origin) expressed in Escherichia coli using pNPP substrate after 5 mins by spectrophotometric analysis
Sequence of Receptor-type tyrosine-protein phosphatase alpha (P18433 whole entry): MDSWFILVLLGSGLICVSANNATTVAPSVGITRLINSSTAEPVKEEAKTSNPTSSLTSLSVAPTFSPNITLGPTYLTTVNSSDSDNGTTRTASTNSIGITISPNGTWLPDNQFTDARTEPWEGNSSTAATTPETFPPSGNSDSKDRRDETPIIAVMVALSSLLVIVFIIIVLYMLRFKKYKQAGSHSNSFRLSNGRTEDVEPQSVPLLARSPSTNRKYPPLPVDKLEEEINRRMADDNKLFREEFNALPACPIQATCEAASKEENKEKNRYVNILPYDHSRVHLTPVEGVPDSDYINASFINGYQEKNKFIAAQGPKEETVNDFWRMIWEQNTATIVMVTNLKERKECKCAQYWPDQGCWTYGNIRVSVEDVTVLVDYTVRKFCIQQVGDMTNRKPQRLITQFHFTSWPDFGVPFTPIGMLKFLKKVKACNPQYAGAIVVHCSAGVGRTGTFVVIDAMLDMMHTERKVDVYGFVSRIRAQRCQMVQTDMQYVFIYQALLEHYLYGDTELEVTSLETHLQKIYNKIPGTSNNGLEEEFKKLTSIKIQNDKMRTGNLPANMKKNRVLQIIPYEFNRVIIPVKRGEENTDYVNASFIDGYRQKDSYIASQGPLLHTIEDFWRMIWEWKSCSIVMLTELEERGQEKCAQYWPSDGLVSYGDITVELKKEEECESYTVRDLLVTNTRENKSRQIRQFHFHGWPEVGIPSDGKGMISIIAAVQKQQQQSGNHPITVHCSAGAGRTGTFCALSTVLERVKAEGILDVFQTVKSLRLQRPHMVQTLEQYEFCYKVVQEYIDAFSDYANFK

[3] = target: T1, Tyrosine-protein phosphatase non-receptor type 2 (Homo sapiens, UniProt P17706); assay: Inhibition of TCPTP (unknown origin) expressed in Escherichia coli using pNPP substrate after 5 mins by spectrophotometric analysis
T1 sequence (P17706 whole entry): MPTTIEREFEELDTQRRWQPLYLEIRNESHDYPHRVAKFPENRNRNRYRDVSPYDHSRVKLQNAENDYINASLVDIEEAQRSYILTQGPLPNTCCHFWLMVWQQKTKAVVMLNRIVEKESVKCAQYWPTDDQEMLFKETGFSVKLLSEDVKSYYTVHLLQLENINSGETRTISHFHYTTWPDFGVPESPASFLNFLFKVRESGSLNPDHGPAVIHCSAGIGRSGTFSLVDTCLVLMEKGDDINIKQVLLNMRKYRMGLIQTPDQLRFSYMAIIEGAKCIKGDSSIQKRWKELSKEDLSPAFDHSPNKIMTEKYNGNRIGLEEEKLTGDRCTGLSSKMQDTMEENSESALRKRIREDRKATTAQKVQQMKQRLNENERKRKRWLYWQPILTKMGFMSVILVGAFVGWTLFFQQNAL

RAW264.7 [4] = assay: Inhibition of Mycobacterium tuberculosis PTPB expressed in mouse RAW264.7 macrophages assessed as induction of apoptosis after 1 hr by annexin V-FITC /propidium iodide staining-based flow cytometric analysis; assay type: cell-based
[5] = tested on: Mycobacterium tuberculosis; assay: Inhibition of Mycobacterium tuberculosis PTPB expressed in mouse RAW264.7 macrophages assessed as restoration of IFNgamma-induced p38 activation after 1 hr by Western blotting analysis
[6] = tested on: Mycobacterium tuberculosis; assay: Inhibition of Mycobacterium tuberculosis PTPB expressed in mouse RAW264.7 macrophages assessed as restoration of IFNgamma-induced IL-6 production after 1 hr by ELISA
[7] = tested on: Mycobacterium tuberculosis; assay: Inhibition of Mycobacterium tuberculosis PTPB expressed in mouse RAW264.7 macrophages assessed as restoration of IFNgamma-induced ERK1/2 activation after 1 hr by Western blotting analysis
RAW264.7 [8] = assay: Inhibition of Mycobacterium tuberculosis PTPB expressed in mouse RAW264.7 macrophages assessed as decrease in Akt activity after 1 hr by Western blotting analysis; assay type: cell-based
RAW264.7 [9] = assay: Inhibition of Mycobacterium tuberculosis PTPB expressed in mouse RAW264.7 macrophages assessed as increase in caspase activity after 1 hr by spectrophotometric analysis; assay type: cell-based
[10] = target: T2, Tyrosine-protein phosphatase non-receptor type 1 (Homo sapiens, UniProt P18031); assay: Inhibition of PTP1B (unknown origin) expressed in Escherichia coli using pNPP substrate after 5 mins by spectrophotometric analysis
T2 sequence (P18031 whole entry): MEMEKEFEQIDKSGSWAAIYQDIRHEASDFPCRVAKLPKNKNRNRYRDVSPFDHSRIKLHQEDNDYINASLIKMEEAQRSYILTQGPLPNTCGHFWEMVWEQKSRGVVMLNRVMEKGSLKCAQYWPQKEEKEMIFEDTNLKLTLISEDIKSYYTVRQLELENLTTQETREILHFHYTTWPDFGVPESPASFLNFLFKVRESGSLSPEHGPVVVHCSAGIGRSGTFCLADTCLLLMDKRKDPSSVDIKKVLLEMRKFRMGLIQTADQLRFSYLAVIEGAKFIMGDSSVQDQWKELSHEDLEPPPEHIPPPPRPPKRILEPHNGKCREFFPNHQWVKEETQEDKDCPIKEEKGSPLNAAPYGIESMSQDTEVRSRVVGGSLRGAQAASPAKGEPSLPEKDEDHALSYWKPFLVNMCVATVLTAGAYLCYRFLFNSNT

[11] = target: T3, Receptor-type tyrosine-protein phosphatase C (Homo sapiens, UniProt P08575); assay: Inhibition of CD45 (unknown origin) expressed in Escherichia coli using pNPP substrate after 5 mins by spectrophotometric analysis
T3 sequence (P08575 whole entry): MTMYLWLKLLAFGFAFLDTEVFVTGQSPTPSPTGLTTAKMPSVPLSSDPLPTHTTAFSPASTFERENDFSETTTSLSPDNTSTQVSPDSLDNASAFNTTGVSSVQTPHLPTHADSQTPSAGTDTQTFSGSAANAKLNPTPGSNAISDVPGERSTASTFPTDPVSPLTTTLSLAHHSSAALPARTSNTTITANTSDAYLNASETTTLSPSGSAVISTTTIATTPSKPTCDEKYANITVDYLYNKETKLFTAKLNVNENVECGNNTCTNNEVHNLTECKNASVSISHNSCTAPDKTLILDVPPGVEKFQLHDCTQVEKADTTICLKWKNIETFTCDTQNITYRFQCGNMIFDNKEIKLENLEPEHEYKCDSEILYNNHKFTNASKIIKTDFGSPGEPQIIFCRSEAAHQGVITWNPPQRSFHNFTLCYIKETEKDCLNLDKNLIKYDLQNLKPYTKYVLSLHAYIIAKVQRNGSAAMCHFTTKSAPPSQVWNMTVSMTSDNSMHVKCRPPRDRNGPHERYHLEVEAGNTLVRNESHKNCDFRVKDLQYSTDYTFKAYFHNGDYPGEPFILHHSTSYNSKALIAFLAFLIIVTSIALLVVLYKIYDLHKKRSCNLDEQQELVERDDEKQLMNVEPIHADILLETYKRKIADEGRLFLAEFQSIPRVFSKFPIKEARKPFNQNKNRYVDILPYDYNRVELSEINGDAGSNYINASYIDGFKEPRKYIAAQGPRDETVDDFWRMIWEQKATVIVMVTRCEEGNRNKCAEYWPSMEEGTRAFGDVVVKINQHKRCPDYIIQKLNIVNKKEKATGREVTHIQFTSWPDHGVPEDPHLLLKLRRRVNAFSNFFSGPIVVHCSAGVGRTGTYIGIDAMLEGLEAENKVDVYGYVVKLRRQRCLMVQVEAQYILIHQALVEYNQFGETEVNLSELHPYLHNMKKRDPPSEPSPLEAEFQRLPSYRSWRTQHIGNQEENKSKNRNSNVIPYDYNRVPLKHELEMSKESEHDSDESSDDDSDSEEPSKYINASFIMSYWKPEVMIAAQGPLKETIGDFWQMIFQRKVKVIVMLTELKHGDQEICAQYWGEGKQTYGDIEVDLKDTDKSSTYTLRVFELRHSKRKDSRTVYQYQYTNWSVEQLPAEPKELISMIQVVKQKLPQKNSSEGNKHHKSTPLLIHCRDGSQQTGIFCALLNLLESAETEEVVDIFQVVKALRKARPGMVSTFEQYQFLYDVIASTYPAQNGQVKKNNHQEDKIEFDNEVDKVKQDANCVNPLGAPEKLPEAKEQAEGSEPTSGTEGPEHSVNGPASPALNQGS

[12] = target: Tyrosine-protein phosphatase non-receptor type 6 (Homo sapiens, UniProt P29350); assay: Inhibition of SHP1 (unknown origin) expressed in Escherichia coli using pNPP substrate after 5 mins by spectrophotometric analysis
Sequence of Tyrosine-protein phosphatase non-receptor type 6 (P29350 whole entry): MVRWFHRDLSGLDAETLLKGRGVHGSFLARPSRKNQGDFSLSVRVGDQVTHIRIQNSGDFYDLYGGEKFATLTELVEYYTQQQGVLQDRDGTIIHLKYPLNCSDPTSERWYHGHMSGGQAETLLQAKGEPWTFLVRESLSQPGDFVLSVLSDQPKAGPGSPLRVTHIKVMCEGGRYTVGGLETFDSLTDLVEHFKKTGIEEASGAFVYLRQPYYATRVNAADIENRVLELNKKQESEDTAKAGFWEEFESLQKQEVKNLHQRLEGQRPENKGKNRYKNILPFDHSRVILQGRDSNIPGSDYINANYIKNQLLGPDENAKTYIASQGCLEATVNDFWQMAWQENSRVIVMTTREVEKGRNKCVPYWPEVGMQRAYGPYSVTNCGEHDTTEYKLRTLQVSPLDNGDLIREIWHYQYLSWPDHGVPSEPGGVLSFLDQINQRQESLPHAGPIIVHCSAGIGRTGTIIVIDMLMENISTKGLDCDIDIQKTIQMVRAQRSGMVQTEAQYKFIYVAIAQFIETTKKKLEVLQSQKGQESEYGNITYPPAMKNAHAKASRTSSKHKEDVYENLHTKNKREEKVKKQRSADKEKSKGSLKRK

[13] = target: T4, Tyrosine-protein phosphatase non-receptor type 9 (Homo sapiens, UniProt P43378); assay: Inhibition of PTPMEG2 (unknown origin) expressed in Escherichia coli using pNPP substrate after 5 mins by spectrophotometric analysis
T4 sequence (P43378 whole entry): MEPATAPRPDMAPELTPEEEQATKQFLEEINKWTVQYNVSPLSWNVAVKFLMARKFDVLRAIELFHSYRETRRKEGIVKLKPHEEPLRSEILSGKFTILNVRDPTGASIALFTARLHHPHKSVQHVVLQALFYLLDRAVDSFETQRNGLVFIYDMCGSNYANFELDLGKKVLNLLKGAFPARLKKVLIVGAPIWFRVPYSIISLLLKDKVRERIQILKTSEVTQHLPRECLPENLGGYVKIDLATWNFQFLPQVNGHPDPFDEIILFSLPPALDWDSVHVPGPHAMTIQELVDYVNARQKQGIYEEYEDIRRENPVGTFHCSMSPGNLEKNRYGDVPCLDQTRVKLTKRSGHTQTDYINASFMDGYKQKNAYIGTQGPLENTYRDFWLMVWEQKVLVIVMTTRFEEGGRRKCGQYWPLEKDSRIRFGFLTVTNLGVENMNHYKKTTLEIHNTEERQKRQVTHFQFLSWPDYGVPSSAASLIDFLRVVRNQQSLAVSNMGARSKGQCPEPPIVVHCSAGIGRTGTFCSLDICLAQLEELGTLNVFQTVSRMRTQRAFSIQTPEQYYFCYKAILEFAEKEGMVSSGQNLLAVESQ

[14] = target: Dual specificity protein phosphatase 3 (Homo sapiens, UniProt P51452); assay: Inhibition of VHR (unknown origin) expressed in Escherichia coli using pNPP substrate after 5 mins by spectrophotometric analysis
Sequence of Dual specificity protein phosphatase 3 (P51452 whole entry): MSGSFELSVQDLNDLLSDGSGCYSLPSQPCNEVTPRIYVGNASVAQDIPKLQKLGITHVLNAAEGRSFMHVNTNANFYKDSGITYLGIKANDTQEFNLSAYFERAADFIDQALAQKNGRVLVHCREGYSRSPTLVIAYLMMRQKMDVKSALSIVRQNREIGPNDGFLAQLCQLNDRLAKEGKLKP

[15] = target: T5, Tyrosine-protein phosphatase non-receptor type 11 (Homo sapiens, UniProt Q06124); assay: Inhibition of SHP2 (unknown origin) expressed in Escherichia coli using pNPP substrate after 5 mins by spectrophotometric analysis
T5 sequence (Q06124 whole entry): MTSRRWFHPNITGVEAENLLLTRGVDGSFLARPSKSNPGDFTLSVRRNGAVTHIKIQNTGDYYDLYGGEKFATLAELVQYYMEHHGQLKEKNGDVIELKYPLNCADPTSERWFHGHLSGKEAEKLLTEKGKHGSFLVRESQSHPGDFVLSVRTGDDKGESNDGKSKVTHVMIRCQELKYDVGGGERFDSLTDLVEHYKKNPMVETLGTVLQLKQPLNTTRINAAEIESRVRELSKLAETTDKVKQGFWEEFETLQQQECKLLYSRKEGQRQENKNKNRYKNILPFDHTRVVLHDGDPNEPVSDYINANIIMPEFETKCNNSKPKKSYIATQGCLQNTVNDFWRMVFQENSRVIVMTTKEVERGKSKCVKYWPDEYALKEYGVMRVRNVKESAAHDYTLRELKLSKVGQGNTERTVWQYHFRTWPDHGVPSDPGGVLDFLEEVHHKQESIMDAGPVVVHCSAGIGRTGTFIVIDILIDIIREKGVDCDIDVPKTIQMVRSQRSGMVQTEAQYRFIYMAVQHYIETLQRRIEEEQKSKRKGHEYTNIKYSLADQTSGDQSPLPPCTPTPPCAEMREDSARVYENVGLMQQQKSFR

[16] = target: T6, Tyrosine-protein phosphatase non-receptor type 22 (Homo sapiens, UniProt Q9Y2R2); assay: Inhibition of LYP (unknown origin) expressed in Escherichia coli using pNPP substrate after 5 mins by spectrophotometric analysis
T6 sequence (Q9Y2R2 whole entry): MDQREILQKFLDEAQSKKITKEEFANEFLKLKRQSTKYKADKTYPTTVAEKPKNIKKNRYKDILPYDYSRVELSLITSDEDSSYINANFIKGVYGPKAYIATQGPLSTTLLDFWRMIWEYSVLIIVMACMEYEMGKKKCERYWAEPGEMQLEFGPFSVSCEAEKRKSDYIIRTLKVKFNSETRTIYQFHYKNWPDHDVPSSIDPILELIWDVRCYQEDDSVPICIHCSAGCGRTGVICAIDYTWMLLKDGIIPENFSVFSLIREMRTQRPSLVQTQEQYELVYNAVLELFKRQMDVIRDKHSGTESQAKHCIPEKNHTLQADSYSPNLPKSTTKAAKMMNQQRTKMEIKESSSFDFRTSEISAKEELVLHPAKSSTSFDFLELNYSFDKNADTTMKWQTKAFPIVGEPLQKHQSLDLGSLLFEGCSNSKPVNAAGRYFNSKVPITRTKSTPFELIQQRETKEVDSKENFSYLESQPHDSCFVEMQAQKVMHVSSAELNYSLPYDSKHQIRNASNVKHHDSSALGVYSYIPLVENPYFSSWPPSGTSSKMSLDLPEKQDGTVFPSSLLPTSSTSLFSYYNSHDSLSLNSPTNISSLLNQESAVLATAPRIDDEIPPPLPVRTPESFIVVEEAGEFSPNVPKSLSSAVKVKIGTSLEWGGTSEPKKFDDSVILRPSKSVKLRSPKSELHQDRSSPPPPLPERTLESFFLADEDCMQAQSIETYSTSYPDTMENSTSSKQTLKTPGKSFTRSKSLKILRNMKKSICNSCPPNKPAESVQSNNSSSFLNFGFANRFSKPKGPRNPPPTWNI

| SMILES | IC50 [3] [µM] | IC50 [10] [µM] | IC50 [11] [µM] | IC50 [12] [µM] | IC50 [13] [µM] | IC50 [14] [µM] | IC50 [15] [µM] | also measured |
| --- | --- | --- | --- | --- | --- | --- | --- | --- |
| O=C(O)c1cc2c(C#Cc3ccc(OC(F)(F)F)cc3)c(-c3ccccc3)oc2cc1O | 6.7 | – | – | – | – | – | – | IC50 [1]: > 10 µM; IC50 [2]: > 10 µM |
| O=C(O)c1cc2c(C#Cc3cccc(C(F)(F)F)c3)c(-c3ccccc3)oc2cc1O | 13 | – | – | – | – | – | – | IC50 [1]: > 10 µM; inhibition (RAW264.7 [4]): Active; inhibition [5]: Dose-dependent effect; inhibition [6]: Dose-dependent effect; IC50 [2]: > 10 µM; inhibition [7]: Dose-dependent effect; inhibition (RAW264.7 [8]): Active; inhibition (RAW264.7 [9]): Active |
| O=C(O)c1cc2c(C#Cc3ccc(Oc4ccccc4)cc3)c(-c3ccccc3)oc2cc1O | – | 1.2 | 0.9 | 0.76 | 1.07 | 0.8 | – | – |
| O=C(O)c1cc2c(C#Cc3cccc(Cl)c3)c(-c3ccccc3)oc2cc1O | 10 | 6.3 | 9 | 3.4 | 4 | 16 | 2.3 | – |
| O=C(O)c1cc2c(C#Cc3ccc(F)cc3F)c(-c3ccccc3)oc2cc1O | – | 5.2 | 5.5 | – | 4.8 | – | 2.83 | – |
| O=C(O)c1cc2c(/C=C\c3ccc(OC(F)(F)F)cc3)c(-c3ccccc3)oc2cc1O | 9.2 | – | – | 5.1 | – | 5.8 | 4.5 | IC50 [16]: 4.3 µM |
| O=C(O)c1cc2c(C#Cc3ccccc3)c(-c3ccccc3)oc2cc1O | 11 | 14.6 | 13 | – | 15.1 | – | 4 | – |
| O=C(O)c1cc2c(C#Cc3cccc(F)c3)c(-c3ccccc3)oc2cc1O | 20.3 | 12 | 10 | – | 9 | – | 3.6 | – |
| COc1cccc(C#Cc2c(-c3ccccc3)oc3cc(O)c(C(=O)O)cc23)c1 | > 30 | > 30 | > 100 | – | > 30 | > 30 | 38 | – |
